Measurements taken from patent publication US20260285855A1, “HETEROARYL DERIVATIVES AS DDRS INHIBITORS” (CHIESI FARMACEUTICI S.P.A., priority 2023, published 2026).

What was measured:
DDR1 = target: T1, DDR1 (Homo sapiens, UniProt Q08345); assay: LanthaScreen Europium Kinase Binding assay, DDR1; details: 5 nM DDR1, 20 nM Kinase Tracer 178, 1 h at rt; Ki from IC50 by Cheng-Prusoff; read-out: Ki DDR1
T1 construct: purchased Carna Biosciences
Experimental: (§1) DDR1 and DDR2 binding assays were performed using Life Technologies LanthaScreen™ Europium Kinase Binding assay. […] IC50 values were determined in GraphPad Prism 7.0 software, using 4 parameter model: log (inhibitor) vs. response. IC50 values were converted in Ki using the Cheng-Prusoff equation (Ki-IC50/(1+ [Tracer]/Kd).

DDR2 = target: T2, DDR2 (Homo sapiens, UniProt Q16832); assay: LanthaScreen Europium Kinase Binding assay, DDR2; details: 5 nM DDR2, 10 nM Kinase Tracer 178, 1 h at rt; Ki from IC50 by Cheng-Prusoff; read-out: Ki DDR2
T2 construct: purchased Life Technologies
T2 sequence (Q16832 22-855): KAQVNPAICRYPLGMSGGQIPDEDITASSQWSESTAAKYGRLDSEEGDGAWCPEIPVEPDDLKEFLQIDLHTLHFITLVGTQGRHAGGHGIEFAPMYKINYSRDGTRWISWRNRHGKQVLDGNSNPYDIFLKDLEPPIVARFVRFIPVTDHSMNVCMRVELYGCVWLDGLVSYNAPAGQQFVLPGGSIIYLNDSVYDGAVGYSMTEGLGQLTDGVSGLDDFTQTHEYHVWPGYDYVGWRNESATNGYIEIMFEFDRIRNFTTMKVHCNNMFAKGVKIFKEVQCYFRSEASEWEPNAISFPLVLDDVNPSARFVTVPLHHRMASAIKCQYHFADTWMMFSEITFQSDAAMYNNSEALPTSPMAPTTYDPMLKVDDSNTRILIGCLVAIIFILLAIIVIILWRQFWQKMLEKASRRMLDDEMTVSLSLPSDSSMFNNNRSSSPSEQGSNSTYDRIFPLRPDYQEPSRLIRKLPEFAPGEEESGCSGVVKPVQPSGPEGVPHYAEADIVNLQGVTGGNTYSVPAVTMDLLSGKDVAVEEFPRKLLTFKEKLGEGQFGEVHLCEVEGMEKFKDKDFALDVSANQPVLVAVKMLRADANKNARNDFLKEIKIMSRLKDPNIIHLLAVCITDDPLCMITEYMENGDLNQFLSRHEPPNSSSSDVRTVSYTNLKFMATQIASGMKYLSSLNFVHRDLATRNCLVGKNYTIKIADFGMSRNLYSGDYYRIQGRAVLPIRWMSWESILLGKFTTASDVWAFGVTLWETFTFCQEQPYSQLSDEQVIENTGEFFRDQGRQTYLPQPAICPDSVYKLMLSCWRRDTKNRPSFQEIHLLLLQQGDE
Experimental: as §1

T1 sequence (Q08345 19-913): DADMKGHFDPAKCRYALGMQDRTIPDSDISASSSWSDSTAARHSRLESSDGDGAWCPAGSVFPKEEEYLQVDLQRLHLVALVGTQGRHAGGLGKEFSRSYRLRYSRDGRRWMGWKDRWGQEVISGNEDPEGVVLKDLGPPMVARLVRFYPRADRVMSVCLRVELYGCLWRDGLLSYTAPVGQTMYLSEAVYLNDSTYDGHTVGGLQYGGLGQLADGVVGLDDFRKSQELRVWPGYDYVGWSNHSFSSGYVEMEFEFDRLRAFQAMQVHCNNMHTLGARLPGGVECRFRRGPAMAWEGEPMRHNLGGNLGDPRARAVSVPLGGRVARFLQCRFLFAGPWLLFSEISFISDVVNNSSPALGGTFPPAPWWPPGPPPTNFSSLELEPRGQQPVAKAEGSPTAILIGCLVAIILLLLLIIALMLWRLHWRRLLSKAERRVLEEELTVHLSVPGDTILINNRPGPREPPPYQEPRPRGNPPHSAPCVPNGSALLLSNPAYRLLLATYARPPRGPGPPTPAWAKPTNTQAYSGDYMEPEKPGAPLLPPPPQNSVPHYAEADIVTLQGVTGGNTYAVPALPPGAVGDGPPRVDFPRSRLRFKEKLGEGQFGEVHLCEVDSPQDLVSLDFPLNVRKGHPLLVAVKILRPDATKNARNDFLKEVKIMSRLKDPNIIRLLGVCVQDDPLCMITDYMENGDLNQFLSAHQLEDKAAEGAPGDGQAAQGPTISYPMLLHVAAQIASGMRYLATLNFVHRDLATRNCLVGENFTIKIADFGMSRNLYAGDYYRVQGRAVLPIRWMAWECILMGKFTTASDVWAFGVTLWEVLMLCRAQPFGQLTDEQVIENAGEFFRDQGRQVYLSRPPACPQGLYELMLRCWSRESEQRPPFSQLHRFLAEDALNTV

Ki (DDR1) [nM] | Ki (DDR2) [nM] | Structure (SMILES)
< 5 | 5 to 25 | Cn1ccn2ncc(C(=O)N3CC4(CC(NC(=O)Nc5cc(C(F)(F)F)ccc5OCCN5CCOCC5)C4)C3)c12 [Example 56, 1-(2-(1-methyl-1H-imidazo[1,2-b]pyrazole-7-carbonyl)-2-azaspiro[3.3]heptan-6-yl)-3-(2-(2-morpholinoethoxy)-5-(trifluoromethyl)phenyl)urea]
< 5 | 5 to 25 | COc1ccc(OC(F)(F)F)cc1NC(=O)NC1CC2(C1)CN(C(=O)c1cnc3cnccn13)C2 [Example 57, 1-(2-(imidazo[1,2-a]pyrazine-3-carbonyl)-2-azaspiro[3.3]heptan-6-yl)-3-(2-methoxy-5-(trifluoromethoxy)phenyl)urea]
< 5 | 5 to 25 | Cn1cc(C(F)(F)F)cc(NC(=O)NC2CC3(C2)CN(C(=O)c2cnn4ccsc24)C3)c1=O [Example 58, 1-(1-methyl-2-oxo-5-(trifluoromethyl)-1,2-dihydropyridin-3-yl)-3-(2-(pyrazolo[5,1-b]thiazole-7-carbonyl)-2-azaspiro[3.3]heptan-6-yl)urea]
< 5 | 5 to 25 | O=C(Nc1cc(C(F)(F)F)ccn1)NC1CC2(C1)CN(C(=O)c1cnn3ccsc13)C2 [Example 59, 1-(2-(pyrazolo[5,1-b]thiazole-7-carbonyl)-2-azaspiro[3.3]heptan-6-yl)-3-(4-(trifluoromethyl)pyridin-2-yl)urea]
< 5 | < 5 | CN(C(=O)Nc1cc(F)cc(C(F)(F)F)c1)C1CC2(C1)CN(C(=O)c1cnn3ccsc13)C2 [Example 60, 3-(3-fluoro-5-(trifluoromethyl)phenyl)-1-methyl-1-(2-(pyrazolo[5,1-b]thiazole-7-carbonyl)-2-azaspiro[3.3]heptan-6-yl)urea]
< 5 | 5 to 25 | Cc1ccc(OC(F)(F)F)cc1NC(=O)NC1CC2(C1)CN(C(=O)c1cnn3ccn(C)c13)C2 [Example 61, 1-(2-(1-methyl-1H-imidazo[1,2-b]pyrazole-7-carbonyl)-2-azaspiro[3.3]heptan-6-yl)-3-(2-methyl-5-(trifluoromethoxy)phenyl)urea]
< 5 | 5 to 25 | COc1ccc(OC(F)(F)F)cc1NC(=O)NC1CC2(C1)CN(C(=O)c1ncnc3ccsc13)C2 [Example 62, 1-(2-methoxy-5-(trifluoromethoxy)phenyl)-3-(2-(thieno[3,2-d]pyrimidine-4-carbonyl)-2-azaspiro[3.3]heptan-6-yl)urea]
< 5 | 5 to 25 | Cn1ccn2ncc(C(=O)N3CC4(CC(NC(=O)Nc5cccc(C(F)F)c5)C4)C3)c12 [Example 63, 1-(3-(difluoromethyl)phenyl)-3-(2-(1-methyl-1H-imidazo[1,2-b]pyrazole-7-carbonyl)-2-azaspiro[3.3]heptan-6-yl)urea]
< 5 | 5 to 25 | CN(C(=O)Nc1cc(F)cc(C(F)(F)F)c1)C1CC2(C1)CN(C(=O)c1cnn3ccn(C)c13)C2 [Example 64, 3-(3-fluoro-5-(trifluoromethyl)phenyl)-1-methyl-1-(2-(1-methyl-1H-imidazo[1,2-b]pyrazole-7-carbonyl)-2-azaspiro[3.3]heptan-6-yl)urea]
< 5 | 5 to 25 | COc1ccc(C(F)(F)F)cc1NC(=O)NC1CC2(C1)CN(C(=O)c1cnn3ccn(C)c13)C2 [Example 65, 1-(2-methoxy-5-(trifluoromethyl)phenyl)-3-(2-(1-methyl-1H-imidazo[1,2-b]pyrazole-7-carbonyl)-2-azaspiro[3.3]heptan-6-yl)urea]
< 5 | 5 to 25 | Cn1ccn2ncc(C(=O)N3CC4(CC(NC(=O)Nc5cc(C(F)F)ccn5)C4)C3)c12 [Example 66, 1-(4-(difluoromethyl)pyridin-2-yl)-3-(2-(1-methyl-1H-imidazo[1,2-b]pyrazole-7-carbonyl)-2-azaspiro[3.3]heptan-6-yl)urea]
< 5 | 5 to 25 | Cn1ccn2ncc(C(=O)N3CC4(CC(NC(=O)Nc5cccc(OC(F)F)c5)C4)C3)c12 [Example 67, 1-(3-(difluoromethoxy)phenyl)-3-(2-(1-methyl-1H-imidazo[1,2-b]pyrazole-7-carbonyl)-2-azaspiro[3.3]heptan-6-yl)urea]
< 5 | 5 to 25 | COc1ccc(OC(F)(F)F)cc1NC(=O)NC1CC2(C1)CN(C(=O)c1cnn3ccccc13)C2 [Example 68, 1-(2-methoxy-5-(trifluoromethoxy)phenyl)-3-(2-(pyrazolo[1,5-a]pyridine-3-carbonyl)-2-azaspiro[3.3]heptan-6-yl)urea]
< 5 | 5 to 25 | COc1ccc(OC(F)(F)F)cc1NC(=O)NC1CC2(C1)CN(C(=O)c1cnn3ccc(N4CCN(C)CC4)cc13)C2 [Example 69, 1-(2-methoxy-5-(trifluoromethoxy)phenyl)-3-(2-(5-(4-methylpiperazin-1-yl)pyrazolo[1,5-a]pyridine-3-carbonyl)-2-azaspiro[3.3]heptan-6-yl)urea]
< 5 | < 5 | CCn1ccn2ncc(C(=O)N3CC4(CC(NC(=O)Nc5cccc(C(F)(F)F)c5)C4)C3)c12 [Example 70, 1-(2-(1-ethyl-1H-imidazo[1,2-b]pyrazole-7-carbonyl)-2-azaspiro[3.3]heptan-6-yl)-3-(3-(trifluoromethyl)phenyl)urea]
< 5 | < 5 | Cn1ccn2ncc(C(=O)N3CC4(CC(NC(=O)Nc5cc(C#N)cc(OC(F)(F)F)c5)C4)C3)c12 [Example 71, 1-(3-cyano-5-(trifluoromethoxy)phenyl)-3-(2-(1-methyl-1H-imidazo[1,2-b]pyrazole-7-carbonyl)-2-azaspiro[3.3]heptan-6-yl)urea]
< 5 | 5 to 25 | Cn1ccn2ncc(C(=O)N3CC4(CC(NC(=O)Nc5cc(OC(F)(F)F)ccc5F)C4)C3)c12 [Example 72, 1-(2-fluoro-5-(trifluoromethoxy)phenyl)-3-(2-(1-methyl-1H-imidazo[1,2-b]pyrazole-7-carbonyl)-2-azaspiro[3.3]heptan-6-yl)urea]
< 5 | 5 to 25 | Cn1ccn2ncc(C(=O)N3CC4(CC(NC(=O)Nc5cc(OC(F)(F)F)ccn5)C4)C3)c12 [Example 73, 1-(2-(1-methyl-1H-imidazo[1,2-b]pyrazole-7-carbonyl)-2-azaspiro[3.3]heptan-6-yl)-3-(4-(trifluoromethoxy)pyridin-2-yl)urea]
< 5 | < 5 | O=C(Nc1cc(C(F)F)ccn1)NC1CC2(C1)CN(C(=O)c1ncnc3ccsc13)C2 [Example 74, 1-(4-(difluoromethyl)pyridin-2-yl)-3-(2-(thieno[3,2-d]pyrimidine-4-carbonyl)-2-azaspiro[3.3]heptan-6-yl)urea]
< 5 | 5 to 25 | Cn1ccn2ncc(C(=O)N3CC4(CC(NC(=O)Nc5cc(C(F)(F)F)ccn5)C4)C3)c12 [Example 75, 1-(2-(1-methyl-1H-imidazo[1,2-b]pyrazole-7-carbonyl)-2-azaspiro[3.3]heptan-6-yl)-3-(4-(trifluoromethyl)pyridin-2-yl)urea]
< 5 | 5 to 25 | COc1ccc(OC(F)(F)F)cc1NC(=O)N(C)C1CC2(C1)CN(C(=O)c1ncnc3ccsc13)C2 [Example 77, 3-(2-methoxy-5-(trifluoromethoxy)phenyl)-1-methyl-1-(2-(thieno[3,2-d]pyrimidine-4-carbonyl)-2-azaspiro[3.3]heptan-6-yl)urea]
< 5 | 25 to 100 | COc1c(CO)cc(OC(F)(F)F)cc1NC(=O)NC1CC2(C1)CN(C(=O)c1cnn3ccn(C)c13)C2 [Example 78, 1-(3-(hydroxymethyl)-2-methoxy-5-(trifluoromethoxy)phenyl)-3-(2-(1-methyl-1H-imidazo[1,2-b]pyrazole-7-carbonyl)-2-azaspiro[3.3]heptan-6-yl)urea]
< 5 | < 5 | O=C(Nc1cccc(C(F)(F)F)c1)NC1CC2(C1)CN(C(=O)c1ncnc3ccsc13)C2 [Example 79, 1-(2-(thieno[3,2-d]pyrimidine-4-carbonyl)-2-azaspiro[3.3]heptan-6-yl)-3-(3-(trifluoromethyl)phenyl)urea]
< 5 | 5 to 25 | Cc1ccc(-n2nc(C(C)(C)C)cc2NC(=O)NC2CC3(C2)CN(C(=O)c2cnn4ccsc24)C3)cc1 [Example 80, 1-(3-(tert-butyl)-1-(p-tolyl)-1H-pyrazol-5-yl)-3-(2-(pyrazolo[5,1-b]thiazole-7-carbonyl)-2-azaspiro[3.3]heptan-6-yl)urea]
